Test results taken from paper PMC11597202, “Novel Thiazole-Fused [4,5-g] or [5,4-g]Quinazolin-8-ones and Their Quinazoline Analogues: Synthesis and Biological Evaluation” (Pharmaceuticals, 2024).

Tests used:
[1] = target: T1, CDK9/CyclinT (Homo sapiens, UniProt P50750); assay: ADP-Glo kinase inhibition assay, CDK9/CyclinT; type: biochemical; conditions: percentage of maximum activity of the DMSO control, mean n = 2, 10 µM ATP, read-out: Residual activity CDK9/CyclinT; for remaining activity at 1 µM: 1 μM compound; for remaining activity at 10 µM: 10 μM compound
T1 construct: host or cells: Sf9 insect cells (baculovirus)
Protocol: (§1) Kinase enzymatic activities were assayed in 384-well plates using the ADP-Glo^TM assay kit (Promega, Madison, WI, USA) according to the recommendations of the manufacturer. This luminescent ADP detection assay was described by Zegzouti and co-workers and provides a homogeneous and high-throughput screening method to measure kinase activity by quantifying the amount of ADP produced during a kinase reaction. Briefly, the reactions were carried out in a final volume of 6 µL for 30 min at 30 °C in an appropriate kinase buffer (10 mM MgCl2, 1 mM EGTA, 1 mM DTT, 25 mM Tris-HCl pH 7.5, 50 µg/mL heparin), with peptide or protein as substrate in the presence of 10 µM ATP. Peptide substrates were obtained from ProteoGenix (Schiltigheim, France) or Sigma for Histone H1, Poly (L-glutamic acid–L-tyrosine) sodium salt, Casein and MBP. After that, 6 µL of ADP-Glo^TM Kinase Reagent was added to stop the kinase reaction. After an incubation time of 50 min at room temperature (rt), 12 µL of Kinase Detection Reagent was added for one hour at rt. The transmitted signal was measured using the Envision (PerkinElmer, Waltham, MA, USA) microplate luminometer and expressed as Relative Light Units (RLUs). Kinase activities are expressed as percentages of remaining kinase activities detected after treatment with 1 or 10 µM of the tested compounds. The maximum kinase activity was measured in the absence of inhibitor but with an equivalent dose of DMSO (solvent of the tested compounds).
(§2) 3. Kinase inhibition assays
(§3) Kinase enzymatic activities were assayed in 384-well plates using the ADP-GloTM assay kit (Promega, Madison, WI) according to the recommendations of the manufacturer. This luminescent ADP detection assay was described by Zegzouti and co-workers and provides a homogeneous and high-throughput screening method to measure kinase activity by quantifying the amount of ADP produced during a kinase reaction. Briefly, the reactions were carried out in a final volume of 6 µl for 30 min at 30°C in appropriate kinase buffer (10 mM MgCl2, 1 mM EGTA, 1 mM DTT, 25 mM Tris-HCl pH 7.5, 50 µg/mL heparin), with peptide or protein as substrate in the presence of 10 µM ATP. Peptide substrates were obtained from ProteoGenix (Schiltigheim, France) or Sigma for Histone H1, Poly (L-glutamic acid – L-tyrosine) sodium salt, Casein and MBP. After that, 6 µL of ADP-GloTM Kinase Reagent was added to stop the kinase reaction. After an incubation time of 50 min at room temperature (rt), 12 µL of Kinase Detection Reagent was added for 1 h at rt. The transmitted signal was measured using the Envision (PerkinElmer, Waltham, MA) microplate luminometer and expressed in Relative Light Unit (RLU). Kinase activities are expressed in percentages of remaining kinase activities detected after treatment with 1 or 10 µM of the tested compounds. The maximal kinase activity is measured in the absence of inhibitor but with an equivalent dose of DMSO (solvent of the tested compounds).
(§4) Table. Human protein kinases tested in the panel: CDK9, HASPIN, PIM1, GSK3b, CK1ε, JAK3, CLK1 […]
Protein Kinase Enzyme Description Substrate1
(Family) (Working concentration)
CDK9/CyclinT Human, recombinant, expressed by Peptide:
(CMGC) baculovirus in Sf9 insect cells […]
CLK1 Human, recombinant, expressed by Peptide: […]
(CMGC) baculovirus in Sf9 insect cells (57.3µM)
DYRK1A Human, recombinant, expressed by Peptide: […]
(CMGC) baculovirus in Sf9 insect cells (10.7µM)
PIM1 Human proto-oncogene, recombinant, Peptide: […]
(CAMK) expressed in bacteria (630 µM)
GSK3 Human, recombinant, expressed by Peptide:
(CMGC) baculovirus in Sf9 insect cells […]pEDEEE 3
HASPIN Human, kinase domain, amino acids 470 to Histone H3 peptide (1-21):
(Other) 798, recombinant, expressed in bacteria […] (8µM)
CK1ε Human, recombinant, expressed by Peptide: […]pAYSITA 2
(CK1) baculovirus in Sf9 insect cells (170µM)
JAK3 Human, recombinant, expressed by Peptide: […]
(TK) baculovirus in Sf9 insect cells (94µM) […]

[2] = target: T2, CK-1ε (Homo sapiens, UniProt P49674); assay: ADP-Glo kinase inhibition assay, CK-1ε; type: biochemical; conditions: percentage of maximum activity of the DMSO control, mean n = 2, 10 µM ATP, read-out: Residual activity CK-1ε; for remaining activity at 1 µM: 1 μM compound; for remaining activity at 10 µM: 10 μM compound
T2 construct: host or cells: Sf9 insect cells (baculovirus)
Protocol: as §1, §2, §3, §4
1 Peptide substrates were obtained from ProteoGenix (Schiltigheim, France) or Sigma for Histone H1, Poly (L-glutamic acid – L-tyrosine) sodium salt, Casein and MBP; 2 “Sp” stands for phosphorylated serine.
Controls inhibitors: To validate each kinase assay, the following model inhibitors were used under the same conditions than the tested compounds: Staurosporine from Streptomyces sp.

T1 sequence (P50750 whole entry): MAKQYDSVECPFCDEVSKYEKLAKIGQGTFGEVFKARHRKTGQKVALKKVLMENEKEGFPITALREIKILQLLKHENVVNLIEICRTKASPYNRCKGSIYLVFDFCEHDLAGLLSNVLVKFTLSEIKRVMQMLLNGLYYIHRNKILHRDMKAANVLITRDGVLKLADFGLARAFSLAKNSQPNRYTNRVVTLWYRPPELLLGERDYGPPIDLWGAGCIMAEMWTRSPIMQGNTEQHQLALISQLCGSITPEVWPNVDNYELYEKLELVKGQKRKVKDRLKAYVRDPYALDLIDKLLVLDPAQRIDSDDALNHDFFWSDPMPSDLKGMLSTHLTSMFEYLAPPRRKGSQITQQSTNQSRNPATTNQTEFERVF
T1 sequence (O60563 whole entry partner): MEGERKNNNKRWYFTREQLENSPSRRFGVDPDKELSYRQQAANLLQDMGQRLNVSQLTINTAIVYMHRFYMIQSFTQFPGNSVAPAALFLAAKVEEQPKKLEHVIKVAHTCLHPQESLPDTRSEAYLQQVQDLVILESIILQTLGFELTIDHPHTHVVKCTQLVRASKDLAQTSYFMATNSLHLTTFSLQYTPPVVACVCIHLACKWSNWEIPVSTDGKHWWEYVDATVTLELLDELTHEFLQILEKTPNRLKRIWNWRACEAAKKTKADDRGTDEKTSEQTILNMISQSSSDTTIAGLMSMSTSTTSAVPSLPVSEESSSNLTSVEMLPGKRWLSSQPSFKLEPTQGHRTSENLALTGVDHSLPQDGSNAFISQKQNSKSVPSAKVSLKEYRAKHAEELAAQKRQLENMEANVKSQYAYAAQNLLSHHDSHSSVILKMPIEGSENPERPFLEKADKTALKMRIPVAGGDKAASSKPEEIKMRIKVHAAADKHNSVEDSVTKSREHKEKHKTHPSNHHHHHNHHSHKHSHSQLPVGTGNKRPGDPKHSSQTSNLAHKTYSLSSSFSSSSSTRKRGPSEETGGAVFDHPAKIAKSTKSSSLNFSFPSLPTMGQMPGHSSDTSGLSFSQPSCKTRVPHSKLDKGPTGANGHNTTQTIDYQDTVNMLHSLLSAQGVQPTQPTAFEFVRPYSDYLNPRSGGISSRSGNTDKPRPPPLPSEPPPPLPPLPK
T2 sequence (P49674 whole entry): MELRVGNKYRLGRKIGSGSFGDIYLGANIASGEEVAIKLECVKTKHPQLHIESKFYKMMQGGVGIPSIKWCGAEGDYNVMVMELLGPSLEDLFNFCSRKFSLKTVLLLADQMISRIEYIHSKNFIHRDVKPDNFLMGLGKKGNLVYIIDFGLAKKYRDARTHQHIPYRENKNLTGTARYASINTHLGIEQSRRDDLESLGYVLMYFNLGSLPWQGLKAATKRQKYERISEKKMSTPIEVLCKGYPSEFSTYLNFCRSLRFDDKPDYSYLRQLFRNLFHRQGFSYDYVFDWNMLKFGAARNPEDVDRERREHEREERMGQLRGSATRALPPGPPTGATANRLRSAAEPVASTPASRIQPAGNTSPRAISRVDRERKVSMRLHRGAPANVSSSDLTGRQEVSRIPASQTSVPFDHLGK

remaining activity at 1 µM [1] [%]	remaining activity at 10 µM [1] [%]	remaining activity at 1 µM [2] [%]	remaining activity at 10 µM [2] [%]	SMILES
107	104	111	103	COC(=N)c1nc2cc3ncn(Cc4ccccc4)c(=O)c3cc2s1 [Compound 6b, Methyl 7-benzyl-8-oxo-7,8-dihydrothiazolo[5,4-g]quinazoline-2-carbimidate]
105	101	112	87	COC(=N)c1nc2c(ccc3c(=O)n(Cc4ccccc4)cnc32)s1 [Compound 6c, Methyl 7-benzyl-6-oxo-6,7-dihydrothiazolo[5,4-h]quinazoline-2-carbimidate]
106	94	92	98	COC(=N)c1nc2ccc3c(=O)n(Cc4ccccc4)cnc3c2s1 [Compound 6d, Methyl 7-benzyl-6-oxo-6,7-dihydrothiazolo[4,5-h]quinazoline-2-carbimidate]
101	100	95	72	COC(=N)c1nc2cc3c(Nc4ccc(OC)cc4F)ncnc3cc2s1 [Compound 15a, Methyl 8-[(2-fluoro-4-methoxyphenyl)amino]thiazolo[4,5-g]quinazoline-2-carbimidate]
103	101	100	69	COC(=N)c1nc2cc3c(=O)n(Cc4ccccc4)cnc3cc2s1 [Compound 6a, Methyl 7-benzyl-8-oxo-7,8-dihydrothiazolo[4,5-g]quinazoline-2-carbimidate]
91	41	92	70	COC(=N)c1nc2ccc3ncn(Cc4ccccc4)c(=O)c3c2s1 [Compound I, methyl 8-benzyl-9-oxo-8,9-dihydrothiazolo[5,4-f]quinazoline-2-carbimidate, reference compound]
98	110	98	108	COC(=N)c1nc2cc3ncnc(Nc4ccc(OC)cc4F)c3cc2s1 [Compound 15b, Methyl 8-[(2-fluoro-4-methoxyphenyl)amino]thiazolo[5,4-g]quinazoline-2-carbimidate]

SMILES	remaining activity at 1 µM [1] [%]	remaining activity at 10 µM [1] [%]	remaining activity at 1 µM [2] [%]	remaining activity at 10 µM [2] [%]
COC(=N)c1nc2ccc3ncnc(Nc4ccc(OC)cc4F)c3c2s1 [Compound II, methyl 9-[(2-fluoro-4-methoxyphenyl)amino]thiazolo[5,4-f]quinazoline-2-carbimidate, reference compound]	86	59		
